We go through one compound from paper PMC4129416, “YLT192, a Novel, Orally Active Bioavailable Inhibitor of VEGFR2 Signaling with Potent Antiangiogenic Activity and Antitumor Efficacy in Preclinical Models” (Scientific Reports, 2014).

“Also recorded” adds a separate entry of the source.

For one data set, the system named is A431. The data set is described as follows: Inhibition of tumor cell growth. The data set is classed as cell-based. The conditions noted are these: A-431; A431, human pidermoid carcinoma; 48 hour treatment; means ± SD, n=3. The source says: (§1) Data are means ± SD, n=3.
(§2) cell line cell type IC50(μM) […]

A further data set deals with MV4-11. The data set is described as follows: Inhibition of tumor cell growth. It is filed as cell-based. The conditions noted are these: MV4-11, human acute myeloid leukemia; 48 hour treatment; means ± SD, n=3.
From the text: as §1, §2

For a further data set, the system named is MDA-MB-231. The experiment in a line: Inhibition of tumor cell growth. The conditions noted are these: MDA-MB-231, human mammary carcinoma; 48 hour treatment; means ± SD, n=3. The data set is classed as cell-based.
From the text: as §1, §2

The next data set has as its system SPC-A1. The experiment in a line: Inhibition of tumor cell growth. The data set is classed as cell-based. The conditions noted are these: SPCA1; SPC-A1, human lung cancer; 48 hour treatment; means ± SD, n=3.
From the text: as §1, §2

For the next data set, the system named is SKOV-3. The experiment in a line: Inhibition of tumor cell growth. It is filed as cell-based. The conditions noted are these: SK-OV-3; SKOV-3, human ovarian carcinoma; 48 hour treatment; means ± SD, n=3.
From the text: as §1, §2

Another data set concerns SMMC-7721. The data set is described as follows: Inhibition of tumor cell growth. The data set is classed as cell-based. The conditions noted are these: SMMC-7721, human hepatocellular carcinoma; 48 hour treatment; means ± SD, n=3.
From the text: as §1, §2

A further data set deals with BEL7402. The experiment in a line: Inhibition of tumor cell growth. It is filed as cell-based. The conditions noted are these: Bel-7402; BEL7402, human hepatocellular carcinoma; 48 hour treatment; means ± SD, n=3.
From the text: as §1, §2

The next data set concerns SW620. The data set is described as follows: Inhibition of tumor cell growth. It is filed as cell-based. The conditions noted are these: SW-620; SW620, human colorectal carcinoma; 48 hour treatment; means ± SD, n=3.
From the text: as §1, §2

In a further data set the test system is Hela. The data set is described as follows: Inhibition of tumor cell growth. It is filed as cell-based. The conditions noted are these: human epithelial carcinoma, 48 hour treatment, means ± SD, n=3.
From the text: as §1, §2

The test system of the next data set is LS147T. The experiment in a line: Inhibition of tumor cell growth. The data set is classed as cell-based. The conditions noted are these: human colorectal carcinoma, 48 hour treatment, means ± SD, n=3.
From the text: as §1, §2

The next data set relates to MCF-7. The experiment in a line: Inhibition of tumor cell growth. It is filed as cell-based. The conditions noted are these: MCF7; MCF-7, human mammary carcinoma; 48 hour treatment; means ± SD, n=3.
From the text: as §1, §2

The nature of data set [1]: Pharmacokinetics in male wistar rats. It is filed as in vivo. An excerpt: Appropriate pharmacokinetic parameters are essential to determine the efficacy of anti-cancer drugs. We determined the pharmacokinetic characteristics of YLT192 in male wistar rats. The pharmacokinetic parameters of YLT192 are summarized in Supplementary Table S2 and the plasma concentration versus time profile is shown in Supplementary Figure S3.
Supplementary Table S2: Pharmacokinetic parameters for YLT192 in rats (n=6 mice per group). Data are means ± SD. […]
Note: I.V.=intravenous, P.O.=orally administration, Cmax =maximum plasma concentration, AUC=area under the curve, T1/2=half life of the inhibitor, CL=clearance , Vz=volume of distribution, F=bioavailability
Supplementary Figure S3. Mean plasma concentration-time curves of YLT192.
After I.V.(20mg/kg) and P.O.(50mg/kg) administration of YLT192 in wistar male rats, the concentration of YLT192 in the plasma was determined by HPLC (n=6 mice per group). Data are means ± SD.

The next data set has as its system HUVEC. The data set is described as follows: VEGF165-stimulated HUVEC growth, MTT assay. The conditions noted are these: Homo sapiens, induced by VEGF165 (50 ng/mL), read-out: IC50, HUVEC proliferation. The data set is classed as cell-based. The source says: The inhibition effect of YLT192 on VEGF165-stimulated HUVEC growth was examined using MTT assay.
Data set [2] concerns zebrafish intersegmental vessels. The experiment in a line: Transgenic zebrafish (FLK-1: EGFP) embryonic angiogenesis model. It is filed as in vivo. The conditions noted are these: 5 μM; zebrafish embryos treated 15 hpf, imaged 30 hpf. The source says:
To test the anti-angiogenesis effects of YLT192 in vivo, we used a FLK-1 promoter enhanced green fluorescent protein (EGFP) transgenic zebrafish model.
Figure 3 YLT192 inhibited angiogenesis in vivo. (A) Fluorescent images of 30 hpf zebrafish treated with vehicle or concentrations of YLT192. ISV growth was inhibited by YLT192. One representative experiment of three is shown. Data are means ± SEM (n = 10 per group), *P < 0.05, **P < 0.01. Scale bars represent 100 μm. […] Frozen sections of HCT116 tumors were tested by immunohistochemistry analysis with anti-CD31 antibody. Representative images of the tumor vasculature from vehicle and YLT192 treated mice were shown. The fields were averaged in each tumor, and the averages for each animal were used to give the final mean ± SD (n = 6 mice per group). *P < 0.05, **P < 0.01. Scale bars represent 100 μm. […] Alginate beads containing 5 × 10^4 CT26 cells were implanted s.c. into the backs of mice. Mice were then orally treated with YLT192 or vehicle once daily. Beads were surgically removed 14 days later and FITC-dextran was quantified. […] Data are means ± SD (n = 6 mice per group), *P < 0.05, **P < 0.01. Scale bars represent 500 μm.
The transgenic zebrafish (FLK-1: EGFP) was used in the experiments. The embryos were grown and maintained as described previously. […]

Setting [3] is: male, Wistar, rat, plasma, po, 50 mg/kg, P.O. 50 mg/kg, means ± SD, n=6.

The term half-life denotes the time in which the quantity being followed falls by half. A lower half-life goes with rapid decline. A word on the AUC(0-inf): it is total exposure, with the tail of the curve extrapolated. A low value points to low exposure. As usually defined, the bioavailability is the share of a dose that reaches the circulation, judged against a reference dose that is usually intravenous. Usually Cmax stands for the maximum level reached in the sampled fluid or tissue.

On to `CNC(=O)c1cc(Oc2ccc(NC(=O)c3cccc(OC)c3)cc2)ccn1` [YLT192], for which the IC50 came to 7.7 ± 0.9 µM in the data set on A431; 21.9 ± 1.9 µM in the data set on MV4-11; 11.9 ± 2.1 µM in the data set on MDA-MB-231; 16.4 ± 1.4 µM in the data set on SPC-A1; 8.2 ± 1.5 µM in the data set with SKOV-3; 12.1 ± 1.6 µM with SMMC-7721. The IC50 in the data set on BEL7402 is 11.3 ± 1.1 µM; in the data set with SW620, 7.9 ± 1.7 µM; in the data set with Hela, 18.9 ± 2.4 µM; in the data set with LS147T it was 9 ± 1.1 µM; with MCF-7, 16.8 ± 1.7 µM; with HUVEC, 2300 nM. Moreover, the Vz in [1] (P.O. 50 mg/kg, means ± SD, n=6) was 7.84 ± 1.12 L/kg. Further, the half-life in data set [1] (male, Wistar, rat, plasma, iv, 20 mg/kg, I.V. 20 mg/kg, means ± SD, n=6) is 246 ± 126 min; in data set [1] (setting [3]) it was 546 ± 246 min. Further, the AUC(0-inf) in [1] (male, Wistar, rat, plasma, iv, I.V. 20 mg/kg, means ± SD, n=6) came to 65900 ± 6200 ng·h/mL; in data set [1] (male, Wistar, rat, plasma, po, P.O. 50 mg/kg, means ± SD, n=6), 83300 ± 21900 ng·h/mL. Moreover, the Vd in [1] (male, Wistar, rat, plasma, iv, I.V. 20 mg/kg, means ± SD, n=6, read-out: Vz) is 1.79 ± 0.24 L/kg. Also, the bioavailability in data set [1] (male, Wistar, rat, plasma, oral, P.O. 50 mg/kg vs I.V. 20 mg/kg, read-out: F (oral bioavailability)) stood at 50.5%. The compound further registered a peak concentration (Cmax) in data set [1] (setting [3]) of 4100 ± 400 ng/mL. Further, in data set [2], the “formation of intersegmental vessels” value is “considerably blocked; also recorded: significantly inhibited”.
